Data published in patent US12479866B2, “Boron-containing rho kinase inhibitors” (Percipiad, Inc., priority 2019, dated 2025).
Where “and” joins values, the source holds several entries; their conditions need not be identical. Equal entries are not always repeated. Where two headings read alike, the source gives them in different places.

Assays:
[1] = Octanol/buffer partition coefficient (log D7.4); assay type: physicochemical; details: n-octanol / pH 7.4 phosphate buffer, read-out: log D at pH 7.4
Method: In a single incubation, 15 μL of a 10 mM DMSO solution of each test article was added to test tubes, which contained 0.75 mL of n-octanol and 0.75 mL of pH 7.4 phosphate buffer. Testosterone was also introduced to each tube as an internal control, also at a dosing concentration of 100 μM. These samples were gently mixed on a benchtop rotator for 1 hour at room temperature. The tubes were then removed from the rotator and the aqueous and organic phases were allowed to separate for 1 hour. […] As a methods control, the log D of testosterone was also measured at a satisfactory value.

[2] = molecular target: PKA-NanoLuc fusion protein (Homo sapiens (Human), UniProt P17612); assay: PKA-NanoBRET Target Engagement Intracellular Kinase Assay in HEK293 cells; assay type: cell-based; details: live HEK293 cells, 2 hours; read-out: Estimated IC50, inhibition of NanoBRET tracer binding to PKA
Method: NanoBRET™ TE assay is based on the NanoBRET™ System, an energy transfer technique designed to measure molecular proximity in living cells. The NanoBRET™ TE assay measures the apparent affinity of test compounds by competitive displacement of the NanoBRET™ tracer, reversibly bound to a NanoLuc® luciferase-kinase fusions in cells. Using the NanoBRET™ TE Kinase Assay, a fixed concentration of tracer is added to cells expressing the desired NanoLuc® kinase fusion to generate a BRET signal. […] Centrifuged culture, resuspended cells in fresh culture media, and dispense 85 ul in to wells of 96-well plate. • 3. […] Added 10 μl of 10× serially diluted inhibitor compound per well containing cells with IX NanoBRET Tracer Reagent. Thoroughly mixed plate on an orbital shaker for 15 seconds at 700 rpm. • 5. […] Equilibrated plate to room temperature for ˜15 minutes. • 6. […] Measured donor emission wavelength (450 nm) and acceptor emission wavelength (610 nm) using the GloMax® Discover System (Promega). To generate raw BRET ratio values, divided the acceptor emission value (610 nm) by the donor emission value (450 nm) for each sample.

CDK2/CyclinE1 = CDK2/CyclinE1 (Homo sapiens (Human), UniProt P24941); assay: Kinase Selectivity Profiling General Panel (ADP-Glo); assay type: biochemical; details: 1 μM compound, read-out: Percent enzyme activity inhibition, CDK2/CyclinE1
Method: After this incubation, 5 μl of ADP-Glo™ reagent was added to 5 μl reaction and incubated for 40 minutes. Then, 10 μl of Kinase Detection Reagent added to all assay wells in the assay plate and incubated at room temperature for 30 minutes.

primary hTM cells = assay: CellTox Green cytotoxicity assay in hTM cells; assay type: cell-based; details: 24 h, 48 h, 72 h
Excerpt: Commercially available RealTime-Glo™ MT cell viability (Promega, catalog #G9712) and CellTox™ Green cytotoxicity (Promega, catalog #G8731) assays were used in assessing effect of compounds on primary hTM cell viability and cytotoxicity. The RealTime-Glo™ MT cell viability assay is a nonlytic, homogeneous, bioluminescent method that determines the number of viable cells in culture by measuring the reducing potential of cells and thus metabolism (MT). Viable cells reduce the proprietary pro-substrate to generate a substrate for NanoLuc® luciferase. This substrate diffuses from cells into the surrounding culture medium, where it is rapidly used by the NanoLuc® Enzyme to produce a luminescent signal. In a contrasting and complementary manner, CellTox™ Green cytotoxicity assay measures changes in membrane integrity that occur as a result of cell death. This assay system uses a proprietary asymmetric cyanine dye that is excluded from viable cells but preferentially stains the dead cells' DNA. […]
Human™ cells were cultured and maintained as described in Example 12. […] Light emitted by luciferase and fluorescence emitted by dye binding to DNA (excitation 485 nm and emission 525 nm) were measured at 24 h, 48 h, and 72 h after incubation using plate based luminescence and fluorescence plate readers.

[3] = Solubility Assay #1, equilibrium solubility in pH 7.4 aqueous buffer; details: pH 7.4 phosphate buffer, thermodynamic from solid
[4] = Stability in buffer, plasma, and blood (LC-MS/MS); assay type: in vitro ADME, human; parameters: half-life: dose or concentration left out as unconfirmed
Method: Stability in buffer, plasma, and blood. Study was conducted by Absorption Systems. Studies were carried out in pH 7.4 phosphate buffer, mixed-gender human plasma (Lot #HMN330460), and mixed-gender human whole blood (Lot #HMN 381096). […] The plasma and blood were obtained from BioIVT and collected on sodium heparin. They were adjusted to pH 7.4 prior to initiating the experiments. […] Aliquots of the DMSO solution were dosed into 1 mL of matrix, which had been pre-warmed to 37° C., at a final concentration of […]. The vials were kept in a benchtop Thermomixer® for the duration of the experiment. Aliquots (100 μL) were taken at each time point (0, 15, 30, 60, and 120 minutes) and added to 96-well plates, which had been pre-filled with 300 μL of acetonitrile (ACN). Samples were stored at 4° C. until the end of the experiment. After the final time point was sampled, the plate was mixed and then centrifuged at 3,000 rpm for 10 minutes. Aliquots of the supernatant were removed, diluted 1:1 into distilled water, and analyzed by LC-MS/MS (Table 21). The peak area response ratio to internal standard (PARR) was compared to the PARR at time 0 to determine the percent of test article remaining at each time point. Half-lives were calculated using GraphPad software, fitting to a single-phase exponential decay equation.

[5] = water, thermodynamic from solid

## Cl.Cl.NCC(C(=O)Nc1ccc2cnccc2c1)c1ccc(B(O)O)cc1 (stereo not drawn) [Compound 10•2HCl]
[1]
  logD: 0.822
[2]
  IC50: 1.42 µM
CDK2/CyclinE1
  inhibition at 1 µM: 11%
Primary hTM cells
  Cytotoxicity / membrane integrity (in words): no effect on viability or membrane integrity
[3]
  solubility: 39.1 µM
[4]; Buffer pH 7.4, 37° C., 0 min
  Percent Remaining: 100%
[4]; Buffer pH 7.4, 37° C., 15 min
  Percent Remaining: 102%
[4]; Buffer pH 7.4, 37° C., 30 min
  Percent Remaining: 97%
[4]; Buffer pH 7.4, 37° C., 60 min
  Percent Remaining: 101%
[4]; Buffer pH 7.4, 37° C., 120 min
  Percent Remaining: 93%
[4]; both sexes, pH 7.4, human Plasma, 37° C.
  half-life: > 2 h
[4]; both sexes, pH 7.4, human whole Blood, 37° C.
  half-life: > 2 h
[4]; human Plasma, 37° C., 0 min
  Percent Remaining: 100%
[4]; human Plasma, 37° C., 15 min
  Percent Remaining: 82%
[4]; human Plasma, 37° C., 30 min
  Percent Remaining: 106%
[4]; human Plasma, 37° C., 60 min
  Percent Remaining: 83%
[4]; human Plasma, 37° C., 120 min
  Percent Remaining: 91%
[4]; human whole Blood, 37° C., 0 min
  Percent Remaining: 100%
[4]; human whole Blood, 37° C., 15 min
  Percent Remaining: 92%
[4]; human whole Blood, 37° C., 30 min
  Percent Remaining: 87%
[4]; human whole Blood, 37° C., 60 min
  Percent Remaining: 100%
[4]; human whole Blood, 37° C., 120 min
  Percent Remaining: 115%
[4]; pH 7.4 phosphate buffer, Buffer pH 7.4, 37° C.
  half-life: > 2 h
[5]
  solubility: > 100000 µg/mL and > 234000 µM
